Patent US20260042764A1, “COMPOSITIONS AND METHODS FOR INHIBITION OF KRAS” (TheRas, Inc., priority 2022, published 2026)
pIC50: −log10 of the molar value.

Assays:
[1] = target: T1, Avi-KRAS G12R (1-169) GppNHp/RAF1 RBD-3xFLAG (52-151) (Homo sapiens, UniProt P01116, G12R); assay: Raf1-KRAS G12R-GppNHP disruption HTRF assay (Biological Example 1); assay type: binding
T1 construct: Avi-KRAS G12R (1-169)
Procedure, shortened: (§1)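 Measured with a KRAS/RAF1 HTRF assay at pH 7.5 in 10% DMSO, with two 1 h room-temperature incubations with shaking.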

[2] = target: T2, Avi-KRAS WT (1-169) GppNHp/RAF1 RBD-3xFLAG (52-151) (Homo sapiens, UniProt P01116); assay: Raf1-KRAS WT-GppNHP disruption HTRF assay (Biological Example 1); assay type: binding
T2 construct: Avi-KRAS WT (1-169)
Procedure, shortened: as §1

GP2d cells (KRAS G12D) = assay: Cell-based pERK HTRF assay in GP2d cell (Biological Example 2); settings: GP2d, GP2d (KRAS G12D) cells, pERK HTRF
Procedure, shortened: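 Cells grown in DMEM with 10% FBS were exposed to compound for 60 min at 0.25% DMSO, using a 9-point half-log series starting at 1 μM or 100 nM. Lysates were then mixed with d2 and Eu cryptate antibodies for 4–24 h at room temperature, and pERK was read by HTRF.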

[3] = target: T3, Avi-KRAS G12V (1-169) GppNHp/RAF1 RBD-3xFLAG (52-151) (Homo sapiens, UniProt P01116, G12V); assay: Raf1-KRAS G12V-GppNHP disruption HTRF assay (Biological Example 1); assay type: binding
T3 construct: Avi-KRAS G12V (1-169)
Procedure, shortened: as §1

SW620 cells (KRAS G12V) = assay: Cell-based pERK HTRF assay in SW620 cell (Biological Example 4); settings: Homo sapiens, SW-620, SW620 (KRAS G12V) cells, pERK HTRF
Protocol: A pERK assay (Perkin Elmer) was used to determine the effectiveness of compounds in disrupting KRAS G12V protein/effector signaling in cells.
On Day 1, cells (SW620) were seeded into 96-well plates at 3×10^4 cells/well in 80 μL complete growth media (RPMI, 10% FBS).
On Day 2, cells were treated with compounds at 0.25% DMSO. The source plate was created with compounds diluted in media at 5-fold the final assay concentration. The compounds were run in a 9-point concentration curve starting at 1 μM, with a half-log dilution between concentrations. Twenty μL was transferred onto the cell plates (final volume in wells was 100 μL). Plates were harvested after 4 h incubation by aspirating media and adding kit-supplied 1x supplemented lysis buffer to all wells (50 μL per well). Plates were then placed on a plate shaker and incubated at 850 rpm for an additional 30 min.
Antibody mixture solution was prepared by diluting aliquoted d2 and Eu Cryptate antibodies 1:20 in kit supplied detection buffer and mixing the diluted antibodies solutions (1:1 v:v).
Samples were homogenized by pipetting up and down and then transferred (16 μL of cell lysates) from the 96-well cell culture plate to two wells of the HTRF 384-well detection plate containing the antibody solution. Plates were centrifuged (524 g for Imin) and allowed to incubate between 4 and 24 h at room temperature. […] Plates were centrifuged again (524 g for 1 min), then analyzed on the En Vision plate reader using the following settings: Excitation 320 nm, Bandwidth 75 nm; Emission 615 nm, Bandwidth 85 nm; Gain 100%; Flashes 100; Lag 60 μs.

[4] = target: T4, Avi-KRAS G12D (1-169) GppNHp/RAF1 RBD-3xFLAG (52-151) (Homo sapiens, UniProt P01116, G12D); assay: Raf1-KRAS G12D-GppNHP disruption HTRF assay (Biological Example 1); assay type: binding
T4 construct: Avi-KRAS G12D (1-169)
Procedure, shortened: as §1

[5] = KRAS G12R, GppNHp-loaded, class symbols
[6] = KRAS WT, GppNHp-loaded, class symbols
[7] = KRAS G12V, GppNHp-loaded, class symbols
[8] = KRAS G12D, GppNHp-loaded, class symbols

T1 sequence (P01116 1-169 isoform P01116-2 G12R): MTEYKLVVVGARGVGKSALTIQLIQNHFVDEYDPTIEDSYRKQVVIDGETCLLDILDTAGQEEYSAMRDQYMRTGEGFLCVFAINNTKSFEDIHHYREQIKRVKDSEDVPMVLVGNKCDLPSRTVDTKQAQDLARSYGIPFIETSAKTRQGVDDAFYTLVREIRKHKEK
T2 sequence (P01116 1-169 isoform P01116-2): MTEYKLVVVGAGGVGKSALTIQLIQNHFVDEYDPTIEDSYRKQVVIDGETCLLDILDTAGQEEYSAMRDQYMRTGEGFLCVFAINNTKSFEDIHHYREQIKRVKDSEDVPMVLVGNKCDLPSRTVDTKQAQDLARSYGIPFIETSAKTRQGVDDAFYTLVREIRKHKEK
T4 sequence (P01116 1-169 isoform P01116-2 G12D): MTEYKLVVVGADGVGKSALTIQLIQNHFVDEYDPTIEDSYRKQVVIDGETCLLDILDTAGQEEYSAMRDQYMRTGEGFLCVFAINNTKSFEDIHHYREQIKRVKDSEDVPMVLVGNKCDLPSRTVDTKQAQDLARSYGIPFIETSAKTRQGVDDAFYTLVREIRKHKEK
T3 sequence (P01116 1-169 isoform P01116-2 G12V): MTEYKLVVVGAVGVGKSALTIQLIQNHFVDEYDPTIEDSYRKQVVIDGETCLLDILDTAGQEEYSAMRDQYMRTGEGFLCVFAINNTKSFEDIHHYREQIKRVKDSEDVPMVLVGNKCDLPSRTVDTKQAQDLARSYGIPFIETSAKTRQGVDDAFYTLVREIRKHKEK

| pIC50 [1, 5] | pIC50 [2, 6] | pIC50 (GP2d cells (KRAS G12D); class symbols) | pIC50 [3, 7] | pIC50 (SW620 cells (KRAS G12V); class symbols) | pIC50 [4, 8] | pIC50 ([1]; KRAS G12R, GppNHp-loaded, Table 11) | pIC50 ([2]; KRAS WT, GppNHp-loaded, Table 11) | pIC50 (GP2d cells (KRAS G12D)) | pIC50 ([3]; KRAS G12V, GppNHp-loaded, Table 11) | pIC50 (SW620 cells (KRAS G12V)) | pIC50 ([4]; KRAS G12D, GppNHp-loaded, Table 11) | pIC50 ([1]; KRAS G12R-GppNHp/RAF1 RBD HTRF) | pIC50 ([2]; KRAS WT-GppNHp/RAF1 RBD HTRF) | pIC50 ([3]; KRAS G12V-GppNHp/RAF1 RBD HTRF) | pIC50 ([4]; KRAS G12D-GppNHp/RAF1 RBD HTRF) | Compound |
| --- | --- | --- | --- | --- | --- | --- | --- | --- | --- | --- | --- | --- | --- | --- | --- | --- |
| 6.00 to 7.00 | 6.00 to 7.00 | > 7.00 | 6.00 to 7.00 | > 7.00 | 6.00 to 7.00 |  |  |  |  |  |  |  |  |  |  | CCN(c1nc(OC[C@]23C[C@@H](F)CN2CC2(CC2)C3)nc2c(F)c(-c3ccc(F)c4sc(N)c(C#N)c34)c(C(F)(F)F)cc12)[C@H]1CCN(C(=O)C(C)C)C1 [Compound 566] |
| > 7.00 | > 7.00 | > 7.00 | > 7.00 | > 7.00 | > 7.00 |  |  |  |  |  |  |  |  |  |  | CN(c1nc(OC[C@@]23CCCN2C[C@H](F)C3)nc2c(F)c(-c3ccc(F)c4sc(N)c(C#N)c34)c(C(F)(F)F)cc12)[C@H]1CC(=O)N(C2CC2)C1 (atropisomer, axis not shown) [Compound 616] |
|  |  |  |  |  |  |  |  | 6.00 to 7.00 |  | > 7.00 |  | 5.00 to 6.00 | 5.00 to 6.00 | < 5.00 | 5.00 to 6.00 | N#Cc1c(N)sc2c(F)ccc(-c3c(C(F)(F)F)cc4c(N5CCc6cn[nH]c6C5)nc(OC[C@@]56CCCN5C[C@H](F)C6)nc4c3F)c12 [Compound 354] |
|  |  |  |  |  |  |  |  | > 7.00 |  | > 7.00 |  | 6.00 to 7.00 | 6.00 to 7.00 | 6.00 to 7.00 | 6.00 to 7.00 | CN(c1nc(OC[C@@]23CCCN2C[C@H](F)C3)nc2c(F)c(-c3ccc(F)c4sc(N)c(C#N)c34)c(C(F)(F)F)cc12)[C@H]1C[C@H](CF)N(C(=O)C2CC2)C1 [Compound 462] |

Continued, compound first:

| Compound | pIC50 [1, 5] | pIC50 [2, 6] | pIC50 (GP2d cells (KRAS G12D); class symbols) | pIC50 [3, 7] | pIC50 (SW620 cells (KRAS G12V); class symbols) | pIC50 [4, 8] | pIC50 ([1]; KRAS G12R, GppNHp-loaded, Table 11) | pIC50 ([2]; KRAS WT, GppNHp-loaded, Table 11) | pIC50 (GP2d cells (KRAS G12D)) | pIC50 ([3]; KRAS G12V, GppNHp-loaded, Table 11) | pIC50 (SW620 cells (KRAS G12V)) | pIC50 ([4]; KRAS G12D, GppNHp-loaded, Table 11) | pIC50 ([1]; KRAS G12R-GppNHp/RAF1 RBD HTRF) | pIC50 ([2]; KRAS WT-GppNHp/RAF1 RBD HTRF) | pIC50 ([3]; KRAS G12V-GppNHp/RAF1 RBD HTRF) | pIC50 ([4]; KRAS G12D-GppNHp/RAF1 RBD HTRF) |
| --- | --- | --- | --- | --- | --- | --- | --- | --- | --- | --- | --- | --- | --- | --- | --- | --- |
| CCN(c1nc(OC[C@@]23CCCN2C[C@H](F)C3)nc2c(F)c(-c3ccc(F)c4sc(N)c(C#N)c34)c(C(F)(F)F)cc12)[C@H]1CCN(C(=O)C2COC2)C1 (atropisomer, axis not shown) [Compound 580] | > 7.00 | > 7.00 | > 7.00 | > 7.00 | > 7.00 | > 7.00 |  |  |  |  |  |  |  |  |  |  |
| CN(c1nc(OC[C@@]23CCCN2C[C@H](F)C3)nc2c(F)c(-c3ccc(F)c4sc(N)c(C#N)c34)c(C(F)(F)F)cc12)C1CC(F)(F)C1 [Compound 162] |  |  |  |  |  |  | 6.00 to 7.00 | 6.00 to 7.00 | > 7.00 | 5.00 to 6.00 | > 7.00 | 6.00 to 7.00 |  |  |  |  |
| CC(=O)N1C[C@@H]2CC[C@H]1CN2c1nc(OC[C@@]23CCCN2C[C@H](F)C3)nc2c(F)c(-c3ccc(F)c4sc(N)c(C#N)c34)c(C(F)(F)F)cc12 [Compound 455] |  |  |  |  |  |  |  |  | > 7.00 |  | 6.00 to 7.00 |  | 6.00 to 7.00 | 6.00 to 7.00 | 5.00 to 6.00 | 6.00 to 7.00 |
| CCN(c1nc(OC[C@@]23CCCN2C[C@H](F)C3)nc2c(F)c(-c3ccc(F)c4sc(N)c(C#N)c34)c(C(F)(F)F)cc12)[C@H]1CCN(C(=O)[C@H]2CCCO2)C1 (atropisomer, axis not shown) [Compound 735] | > 7.00 | > 7.00 | > 7.00 | > 7.00 | > 7.00 | > 7.00 |  |  |  |  |  |  |  |  |  |  |
| CCN(c1nc(OC[C@@]23CCCN2C[C@H](F)C3)nc2c(F)c(-c3ccc(F)c4sc(N)c(C#N)c34)c(C(F)(F)F)cc12)[C@H]1CCN(C(=O)N(C)C(C)C)C1 (atropisomer, axis not shown) [Compound 585] | > 7.00 | > 7.00 | > 7.00 | > 7.00 | > 7.00 | > 7.00 |  |  |  |  |  |  |  |  |  |  |
| CCN(c1nc(OC[C@@]23CCCN2C[C@H](F)C3)nc2c(F)c(-c3ccc(F)c4sc(N)c(C#N)c34)c(C(F)(F)F)cc12)[C@H]1CCN(C(=O)OC2CC(F)C2)C1 (stereo partly drawn) [Compound 776] | > 7.00 | 6.00 to 7.00 | > 7.00 | 6.00 to 7.00 | > 7.00 | > 7.00 |  |  |  |  |  |  |  |  |  |  |
